In PMC12598616, “Design and optimization of caspase-1-responsive fluorescent probes for pyroptosis imaging and anti-pyroptosis drug screening” (Chemical Science, 2025):

Target: T1, caspase-1 (Homo sapiens, UniProt P29466)
T1 sequence (P29466 120-297 limits assumed): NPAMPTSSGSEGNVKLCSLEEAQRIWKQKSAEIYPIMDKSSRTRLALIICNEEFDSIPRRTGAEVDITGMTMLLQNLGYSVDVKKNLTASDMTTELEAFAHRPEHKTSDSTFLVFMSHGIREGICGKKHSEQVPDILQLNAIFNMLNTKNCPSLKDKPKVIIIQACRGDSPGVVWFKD
T1 sequence (P29466 317-404 limits assumed): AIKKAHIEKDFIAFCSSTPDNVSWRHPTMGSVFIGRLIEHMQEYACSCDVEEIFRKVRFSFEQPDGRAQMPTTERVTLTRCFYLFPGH
Assay: Sensitivity of probes for caspase-1 (fluorescence at 585 nm)
Assay type: biochemical
Conditions: for linear fitting range of Cas-1 concentration: fluorescence intensity at 585 nm vs Cas-1 concentration; for enhancement of fluorescence intensity at 585 nm: Cas-1 0–3 U/mL, assay buffer 50 mM HEPES, 50 mM NaCl, 0.1% chaps, 5% glycerol, 10 mM DTT, 10 mM EDTA, λex 510 nm
Method: The spectral and chemical properties of all probes were then evaluated. Upon interaction with Cas-1, the specific peptide of the probes is cleaved, leading to the disruption of the FRET process in the system and the recovery of donor fluorescence (Fig. 2a). Prior to fluorescence detection, the UV-vis absorption spectra of the probes were acquired. […] Subsequently, the sensitivity of the probes towards Cas-1 was measured in HEPES buffer (50 mM HEPES, 50 mM NaCl, 0.1% chaps, 5% glycerol, 10 mM DTT, 10 mM EDTA). […] The response differences among the probes were more intuitively observed by analyzing the standard curves of fluorescence intensity at 585 nm against the concentration of Cas-1 (Fig. 2b). […] The reaction kinetics of the probes were also measured by monitoring the fluorescence intensity of FPy1, YPy1 and WPy1 (0.5–4 μM) following incubation with Cas-1 (2 U mL^−1) (Fig. S3a–f). […] The reaction time of the probes was also investigated by monitoring the fluorescence spectra of the probes (5 μM) incubated with Cas-1 (2 U mL^−1) at various time intervals (Fig. S4a–c). […] Finally, the selectivity of the probes was evaluated. A series of potential biologically relevant interferents were selected, and the results illustrated that these interferents had no effect on the probes (Fig. S5a–c). Further selectivity validation was performed through incubating with caspase-3 (1 μg mL^−1), caspase-4 (2 U mL^−1), caspase-8 (1 μg mL^−1) from the caspase protease family. […] Therefore, FPy1 appeared to be the prime candidate for Cas-1 imaging applications. […]
Cell culture plates were sourced from Wuxi NEST Biotechnology. Recombinant human caspase-1, caspase-3, caspase-4, and caspase-8 were obtained from Abcam and MCE (Shanghai, China). Anti-cleaved caspase-1 antibody, anti-GAPDH antibody, and goat anti-Rabbit/anti-mouse lgG/HRP were purchased from CST (USA) and Beyotime […]
(Shanghai, China). […]
Medical College (ethical approval number ZJCLA-IACUC-20011003).
(also on this page, place not known: Wang,*f, Wang*abg Supplementary Information (SI) for Chemical Science. This journal is © The Royal Society of Chemistry 2025)
(1 picture or pasted object on this page, not shown here) […]
mixture was stirred for 3 h. DCM was removed under vacuum, and the residue was purified by silica gel column chromatography (DCM/MeOH, 180/1) to afford WPy1 as a dark purple solid (21 mg, 6 % yield). HRMS (ESI+): calcd […]
Analysis of probe purity by LC-MSD
Prepare dilute solutions of FPy1, YPy1 and WPy1 using chromatographic-grade acetonitrile and transfer them to sample vials. Begin with an initial mobile phase consisting of 20% acetonitrile (0.05 % formic acid) and 80% H2O (0.05 % formic acid). Over the course of 30 minutes, implement a gradient change to a mobile phase of 90% acetonitrile (0.05 % formic acid) and 10% H2O (0.05 % FA). Under the elution conditions, LC-MSD was performed on the above probe solutions and blank solvent acetonitrile.
Sensitivity of probes for caspase-1
To investigate the sensitivity of the probes for caspase-1, varying concentration of caspase-1 (0, 0.2, 0.4, 0.6, 0.8, 1.0, 1.25, 1.5, 1.75, 2, 2.5, 3 U/mL) were incubated with FPy1 (5 μM), YPy1 (5 μM) and WPy1 (5 μM) respectively in caspase-1 assay buffer (50 mM HEPES, 50 mM NaCl, 0.1 % chaps, 5 % glycerol, 10 mM DTT, 10 mM EDTA) at 37 °C for 2 hours. Fluorescence spectra were recorded using Hitachi F-2700 spectrophotometer with an excitation at 510 nm (Photomultiplier voltage 700 V; Slit widths ex: 10 nm and em =5.0 nm). The fluorescence intensity of FPy1, YPy1 and WPy1 at 585 nm were plotted against the concentration of caspase-1, and a linear regression fitted from the corresponding concentration of caspase-1, and linear regression was applied to determine the slope k. The limit of detection (LoD) was calculated from 3σ/k, in which σ represents the standard deviation of 15 blank measurements.
Various concentrations of FPy1, YPy1 and WPy1 (0.5, 1, 2, 4 μM) in 100 μL enzyme assay buffer (50 mM HEPES, 50 […]

| Substance | limit of detection (Cas-1, 3σ/k, σ from 15 blank measurements, probe 5 μM, 37 °C, 2 h, estimated) [U L^−1] | fluorescence intensity at 585 nm at the same Cas-1 concentration (before maximum, compared to YPy1, probe 5 μM) | catalytic efficiency of Cas-1 for the probe (compared with YPy1, inferred from intensity at same Cas-1 concentration) | linear fitting range of Cas-1 concentration (probe 5 μM, 37 °C, 2 h) | enhancement of fluorescence intensity at 585 nm (probe 5 μM, 37 °C, 2 h) |
| --- | --- | --- | --- | --- | --- |
| –FLTDG– [FPy1, RhoB donor, hNR quencher] | 3.7 | stronger fluorescence intensity at 585 nm compared to YPy1 | higher catalytic efficiency for FPy1 than YPy1 | 0–1 U mL^−1 | approximately 20.2 fold |
| –YVADG– [YPy1, caspase-1-responsive FRET probe with recognition peptide –YVADG–; RhoB donor, hNR quencher] | – | – | – | 0–2 U mL^−1 | ~19.2 fold |
